Data published in ChEMBL document CHEMBL1139552, “Naphthamidine urokinase plasminogen activator inhibitors with improved pharmacokinetic properties” (Bioorg Med Chem Lett, 2005).

How the values were obtained:
Trypsin = Trypsin (Sus scrofa, UniProt P00761); assay: Binding affinity value against trypsin
[1] = Binding affinity value against thrombin
[2] = Area under the curve time curve value in sprague dawley rat was determined at a dosage of 3 mg/kg; type: ADME, organism-based; parameters: dose 3 mg/kg; conditions: in vivo
[3] = Terminal half life value in sprague dawley rat was determined at a dosage of 3 mg/kg; type: ADME, organism-based; parameters: dose 3 mg/kg; conditions: in vivo
[4] = Bioavailability in rat (Sprague-Dawley) (dose 10 mg/kg); type: ADME, organism-based; conditions: in vivo
[5] = Volume distribution value in sprague dawley rat was determined at a dosage of 3 mg/kg; type: ADME, organism-based; parameters: dose 3 mg/kg; conditions: in vivo
[6] = molecular target: Urokinase-type plasminogen activator (Homo sapiens, UniProt P00749)
Description: Binding affinity value against urokinase plasminogen activator

in vivo [7] = conditions: Sprague-Dawley, rat, 3 mg/kg
Description: (§1) Clearance value in sprague dawley rat was determined at a dosage of 3 mg/kg

[8] = rat, in vivo, 3 mg/kg
Description: as §1

Plasminogen = Plasminogen (Homo sapiens, UniProt P00747); assay: Binding affinity value against plasmin
Plasminogen, sequence (P00747 97-580 limits assumed): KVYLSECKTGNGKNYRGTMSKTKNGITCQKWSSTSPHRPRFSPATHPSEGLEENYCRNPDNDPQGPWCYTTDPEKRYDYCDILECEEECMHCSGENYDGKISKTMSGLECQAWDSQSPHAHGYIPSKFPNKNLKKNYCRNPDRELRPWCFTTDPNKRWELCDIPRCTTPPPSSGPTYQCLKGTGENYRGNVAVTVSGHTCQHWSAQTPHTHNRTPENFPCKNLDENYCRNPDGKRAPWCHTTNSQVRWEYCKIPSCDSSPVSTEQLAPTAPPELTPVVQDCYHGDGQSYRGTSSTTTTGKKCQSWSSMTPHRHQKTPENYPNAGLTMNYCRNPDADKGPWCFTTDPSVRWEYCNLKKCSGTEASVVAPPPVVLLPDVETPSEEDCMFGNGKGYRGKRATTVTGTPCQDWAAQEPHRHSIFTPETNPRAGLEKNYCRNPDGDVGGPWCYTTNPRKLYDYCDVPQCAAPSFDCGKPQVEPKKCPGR
Plasminogen, sequence (P00747 581-810 limits assumed): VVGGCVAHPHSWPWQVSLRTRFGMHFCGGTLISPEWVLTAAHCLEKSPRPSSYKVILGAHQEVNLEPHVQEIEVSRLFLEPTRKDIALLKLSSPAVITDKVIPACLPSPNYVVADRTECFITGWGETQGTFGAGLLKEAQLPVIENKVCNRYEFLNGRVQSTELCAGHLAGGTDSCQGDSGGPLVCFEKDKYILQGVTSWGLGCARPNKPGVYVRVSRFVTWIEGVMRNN

[9] = molecular target: Tissue-type plasminogen activator (Homo sapiens, UniProt P00750); assay: Binding affinity value against Tissue plasminogen activator
Tissue-type plasminogen activator, sequence (P00750 whole entry): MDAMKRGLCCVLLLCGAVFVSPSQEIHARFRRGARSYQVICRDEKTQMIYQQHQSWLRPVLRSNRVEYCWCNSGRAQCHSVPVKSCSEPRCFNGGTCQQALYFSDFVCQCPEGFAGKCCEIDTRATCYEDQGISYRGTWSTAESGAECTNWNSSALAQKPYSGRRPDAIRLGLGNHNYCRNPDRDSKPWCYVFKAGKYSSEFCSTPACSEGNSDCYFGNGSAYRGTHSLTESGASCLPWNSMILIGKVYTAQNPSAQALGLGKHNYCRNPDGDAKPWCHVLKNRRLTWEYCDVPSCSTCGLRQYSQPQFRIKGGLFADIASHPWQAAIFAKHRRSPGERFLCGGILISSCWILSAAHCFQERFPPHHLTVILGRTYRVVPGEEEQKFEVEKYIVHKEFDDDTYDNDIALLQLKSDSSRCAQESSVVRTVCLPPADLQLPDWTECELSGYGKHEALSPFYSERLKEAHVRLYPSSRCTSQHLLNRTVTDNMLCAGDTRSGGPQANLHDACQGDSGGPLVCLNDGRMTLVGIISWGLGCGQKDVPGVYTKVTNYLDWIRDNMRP

Kallikrein-1 = Kallikrein-1 (Homo sapiens, UniProt P06870)
Kallikrein-1, sequence (P06870 whole entry): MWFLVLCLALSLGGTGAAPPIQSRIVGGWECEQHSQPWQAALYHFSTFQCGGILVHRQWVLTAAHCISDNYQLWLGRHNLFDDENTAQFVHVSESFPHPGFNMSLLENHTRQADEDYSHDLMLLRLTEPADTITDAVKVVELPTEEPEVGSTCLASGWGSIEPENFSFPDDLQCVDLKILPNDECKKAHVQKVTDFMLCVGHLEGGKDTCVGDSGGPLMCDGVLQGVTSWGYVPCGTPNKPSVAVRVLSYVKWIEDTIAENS
Description: Binding affinity value against kallikrein

[10] = Bioavailability in sprague dawley rat was determined at a dosage of 3 mg/kg; NT means not tested; type: ADME, organism-based; conditions: in vivo
[11] = Area under the curve time curve value in sprague dawley rat was determined at a intravenous dosage of 10 mg/kg; type: ADME, organism-based; parameters: dose 10 mg/kg, route intravenous; conditions: in vivo
[12] = Volume distribution value in sprague dawley rat was determined at a intravenous dosage of 10 mg/kg; type: ADME, organism-based; parameters: dose 10 mg/kg, route intravenous; conditions: in vivo
in vivo [13] = conditions: Sprague-Dawley, rat, iv, 10 mg/kg
Description: Clearance value in sprague dawley rat was determined at a intravenous dosage of 10 mg/kg

[14] = Terminal half life value in sprague dawley rat was determined at a intravenous dosage of 10 mg/kg; type: ADME, organism-based; parameters: dose 10 mg/kg, route intravenous; conditions: in vivo

Trypsin, sequence (P00761 whole entry): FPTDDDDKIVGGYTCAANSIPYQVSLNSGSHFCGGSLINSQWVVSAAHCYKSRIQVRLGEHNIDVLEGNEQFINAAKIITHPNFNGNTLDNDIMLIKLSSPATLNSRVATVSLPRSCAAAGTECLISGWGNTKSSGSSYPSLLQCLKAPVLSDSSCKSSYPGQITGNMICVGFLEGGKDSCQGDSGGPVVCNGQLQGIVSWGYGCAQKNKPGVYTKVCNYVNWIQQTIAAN

| Ki (Trypsin) [nM] | Ki [1] [nM] | AUC ([2]; Sprague-Dawley, read-out: AUC) [µM·h] | half-life [3] [min] | Vd [5] [L/kg] | Ki [6] [nM] | clearance (in vivo [7]) [mL/min/kg] | CI [8] [L/h/kg] | Ki (Plasminogen) [nM] | Ki [9] [µM] | Ki (Kallikrein-1) [nM] | AUC [10] [µM·h] | half-life [14] [min] | Compound | bioavailability [4] [%] | AUC [2] [µM·h] | CI ([8]; Sprague-Dawley) [L/h/kg] | AUC [11] [µM·h] | Vd [12] [L/kg] | clearance (in vivo [13]) [mL/min/kg] |
| --- | --- | --- | --- | --- | --- | --- | --- | --- | --- | --- | --- | --- | --- | --- | --- | --- | --- | --- | --- |
| 325 | 5640 | – | 126 | 8.5 | – | – | 2.8 | – | – | – | – | – | N=C(N)c1ccc2cc(C(=O)Nc3ccccc3)ccc2c1 | 3 | 8.2 | – | – | – | – |
| 53 | 2140 | 0.51 | 79.8 | 18.6 | – | 161 | – | 1050 | 4.74 | 525 | – | – | CC(C)C1=NCCc2ccc(C3CC3c3ccc4cc(C(=N)N)ccc4c3)cc21 (stereo not drawn) | 26 | – | – | – | – | – |
| 334 | 503 | 2.72 | 283 | 14.3 | 622 | 35 | – | 239 | 30.8 | 379 | – | – | N=C(N)c1ccc2cc(C3CC3c3ccccc3)cc(Br)c2c1 (stereo not drawn) | 17 | – | – | – | – | – |
| – | – | – | – | – | 548 | – | – | – | – | – | – | – | CN1CCc2ccc(C3CC3c3ccc4cc(C(=N)N)ccc4c3)cc2C1C(C)(C)C (stereo not drawn) | – | – | – | – | – | – |
| 64 | 2660 | – | 63 | 18.7 | 281 | 205 | – | 1020 | 5.59 | 992 | 0.6 | – | N=C(N)c1ccc2cc(C(=O)Nc3ccccc3)cc(Br)c2c1 | 0 | – | – | – | – | – |
| – | – | 1.75 | 198 | 18 | – | 63.3 | – | – | – | – | – | – | N=C(N)c1ccc2cc(CCc3ccccc3)cc(Br)c2c1 | > 32 | – | – | – | – | – |
| 165 | 2120 | – | – | – | – | – | – | 955 | 7.04 | 336 | – | – | N=C(N)c1ccc2cc(C3CC3c3ccc4c(c3)C(c3ccccc3)=NCC4)ccc2c1 (stereo not drawn) | – | – | – | – | – | – |
| 54 | 48 | 0.23 | 19.8 | 10 | 5 | 352 | – | 243 | 5.05 | 54 | – | – | N=C(N)c1ccc2cc(C3CC3c3ccccc3)cc(Nc3ncccn3)c2c1 (stereo not drawn) | 0 | – | – | – | – | – |
| 30 | 1790 | – | – | – | – | – | – | 1480 | 10.4 | 640 | – | – | CC(C)C1=NCCc2ccc([C@H]3CC3c3ccc4cc(C(=N)N)ccc4c3)cc21 (stereo partly drawn) | – | – | – | – | – | – |
| – | – | 1.14 | 60 | 9.8 | 3180 | 113 | – | – | – | – | – | – | N=C(N)c1ccc2cc(CCc3ccccc3)ccc2c1 | 60 | – | – | – | – | – |
| 346 | 5270 | – | – | – | – | – | – | – | 34.6 | 991 | – | – | N=C(N)c1ccc2cc(/C=C/c3ccccc3)ccc2c1 | – | – | – | – | – | – |
| 45 | 132 | – | 180 | 21.7 | – | – | 5 | – | – | – | – | – | N=C(N)c1ccc2cc(C(=O)Nc3ccccc3)cc(-c3ccoc3)c2c1 | 0 | 5 | – | – | – | – |
| 480 | 920 | – | – | – | 820 | – | – | 1350 | 13.4 | 770 | – | – | N=C(N)c1ccc2cc(/C=C/c3ccccc3)cc(Br)c2c1 | – | – | – | – | – | – |
| – | – | 0.69 | 16.8 | 2.9 | – | 121 | – | – | – | – | – | – | CC1c2cc(C3CC3c3ccc4cc(C(=N)N)ccc4c3)ccc2CCN1C (stereo not drawn) | 0 | – | – | – | – | – |
| 720 | 1890 | – | – | 23 | – | – | 2.16 | 3520 | 69.1 | 2480 | – | 444 | N=C(N)c1ccc2cc(C3CC3c3ccccc3)ccc2c1 (stereo not drawn) | 30 | 11.6 | – | – | – | – |

| Compound | Ki (Trypsin) [nM] | Ki [1] [nM] | AUC ([2]; Sprague-Dawley, read-out: AUC) [µM·h] | half-life [3] [min] | Vd [5] [L/kg] | Ki [6] [nM] | clearance (in vivo [7]) [mL/min/kg] | CI [8] [L/h/kg] | Ki (Plasminogen) [nM] | Ki [9] [µM] | Ki (Kallikrein-1) [nM] | AUC [10] [µM·h] | half-life [14] [min] | bioavailability [4] [%] | AUC [2] [µM·h] | CI ([8]; Sprague-Dawley) [L/h/kg] | AUC [11] [µM·h] | Vd [12] [L/kg] | clearance (in vivo [13]) [mL/min/kg] |
| --- | --- | --- | --- | --- | --- | --- | --- | --- | --- | --- | --- | --- | --- | --- | --- | --- | --- | --- | --- |
| N=C(N)c1ccc2cc(C(=O)Nc3ccccc3)cc(Nc3ncccn3)c2c1 | 40 | 170 | 0.14 | 36 | 37.1 | 200 | 715 | – | – | – | – | – | – | 0 | – | – | – | – | – |
| N=C(N)c1ccc2cc(CCc3ccccc3)cc(Nc3ncccn3)c2c1 | 167 | 191 | – | 120 | 13.6 | – | – | – | 570 | 5.79 | 156 | – | – | 0 | 4.2 | 4.7 | – | – | – |
| N=C(N)c1ccc2cc(C3CC3c3ccc4c(c3)C(C3CCCCC3)=NCC4)ccc2c1 (stereo not drawn) | 428 | 1140 | 0.57 | 16.2 | 4.5 | – | 192 | – | 594 | 4.02 | 206 | – | – | 22 | – | – | – | – | – |
| CC(C)Oc1cccc(C2CC2c2ccc3cc(C(=N)N)ccc3c2)c1 (stereo not drawn) | 141 | 1100 | 3.48 | 355 | 19.3 | – | 37.7 | – | 2450 | 21.9 | 1400 | – | – | 23 | – | – | – | – | – |
| N=C(N)c1ccc2cc(CCc3ccccc3)cc(-c3ccoc3)c2c1 | – | – | – | – | 1.53 | 731 | – | – | – | – | – | – | – | 18 | 17.6 | 3.31 | – | – | – |
| CN1CCc2ccc(C3CC3c3ccc4cc(C(=N)N)ccc4c3)cc2C1C1CCCCC1 (stereo not drawn) | 31 | 996 | 0.53 | 91.8 | 18.7 | – | 142 | – | 811 | 18.9 | 295 | – | – | 27 | – | – | – | – | – |
| N=C(N)c1ccc2cc(C3CC3c3ccccc3)cc(-c3ccoc3)c2c1 (stereo not drawn) | – | – | – | – | 2.4 | – | – | – | – | – | – | – | – | 10 | 14.5 | 4.2 | – | – | – |
| CC(C)C1=NCCc2cc(C3CC3c3ccc4cc(C(=N)N)ccc4c3)ccc21 (stereo not drawn) | – | – | – | 19.8 | – | – | – | – | – | – | – | – | – | 0 | – | – | 0.27 | 7.9 | 273 |
| CC(C)C1c2cc(C3CC3c3ccc4cc(C(=N)N)ccc4c3)ccc2CCN1C (stereo not drawn) | 90 | 1800 | 0.37 | 33 | 10.3 | – | 216 | – | 1300 | 6.23 | 576 | – | – | 55 | – | – | – | – | – |
| N=C(N)c1ccc2cc(/C=C/c3ccccc3)cc(-c3ccoc3)c2c1 | 96 | 237 | – | 37.2 | – | 168 | 21.7 | – | 134 | 4.46 | 83 | – | – | 0 | – | – | 5.8 | 1.2 | – |
| N=C(N)c1ccc2cc(/C=C/c3ccccc3)cc(Nc3ncccn3)c2c1 | 84 | 395 | – | – | – | 10 | – | – | 277 | > 50 | 42 | – | – | – | – | – | – | – | – |
